From ChEMBL document CHEMBL4368891, “Conformationally restricted quinazolone derivatives as PI3Kδ-selective inhibitors: the design, synthesis and biological evaluation” (Medchemcomm, 2019) come the findings set out here.

Molecules are shown by their SMILES. The source made the active and inactive calls. No cut-off for these calls is given here.

As a reminder, the IC50 is the concentration that inhibits the measured activity by half. As a reminder, the GI50 is the concentration that inhibits growth by half. High values mean lower sensitivity of the cells, low ones greater sensitivity of the cells. In general, half-life refers to the time in which the quantity being followed falls by half. Higher therefore signals slow loss. As usually defined, the microsomal CLint is the capacity of the preparation to metabolise the compound, expressed as a volume cleared per time. A lower microsomal CLint goes with greater metabolic stability. As usually defined, the amount remaining is what is left of the initial amount, in per cent. Low readings indicate a greater loss, high ones greater stability. As usually defined, the AUC(0-t) is the area under the concentration-time curve up to a stated or last time point. Low readings indicate low exposure, high ones high exposure.

The conditions of data set [1]: rat, microsomes.
Description: Intrinsic clearance in liver by measuring in intrinsic clearance in rat liver microsomes in presence of NADPH by LC-MS/MS analysis
In data set [2] the target is T1, Phosphatidylinositol 4,5-bisphosphate 3-kinase catalytic subunit delta isoform (Homo sapiens, UniProt O00329).
T1 sequence (O00329 whole entry): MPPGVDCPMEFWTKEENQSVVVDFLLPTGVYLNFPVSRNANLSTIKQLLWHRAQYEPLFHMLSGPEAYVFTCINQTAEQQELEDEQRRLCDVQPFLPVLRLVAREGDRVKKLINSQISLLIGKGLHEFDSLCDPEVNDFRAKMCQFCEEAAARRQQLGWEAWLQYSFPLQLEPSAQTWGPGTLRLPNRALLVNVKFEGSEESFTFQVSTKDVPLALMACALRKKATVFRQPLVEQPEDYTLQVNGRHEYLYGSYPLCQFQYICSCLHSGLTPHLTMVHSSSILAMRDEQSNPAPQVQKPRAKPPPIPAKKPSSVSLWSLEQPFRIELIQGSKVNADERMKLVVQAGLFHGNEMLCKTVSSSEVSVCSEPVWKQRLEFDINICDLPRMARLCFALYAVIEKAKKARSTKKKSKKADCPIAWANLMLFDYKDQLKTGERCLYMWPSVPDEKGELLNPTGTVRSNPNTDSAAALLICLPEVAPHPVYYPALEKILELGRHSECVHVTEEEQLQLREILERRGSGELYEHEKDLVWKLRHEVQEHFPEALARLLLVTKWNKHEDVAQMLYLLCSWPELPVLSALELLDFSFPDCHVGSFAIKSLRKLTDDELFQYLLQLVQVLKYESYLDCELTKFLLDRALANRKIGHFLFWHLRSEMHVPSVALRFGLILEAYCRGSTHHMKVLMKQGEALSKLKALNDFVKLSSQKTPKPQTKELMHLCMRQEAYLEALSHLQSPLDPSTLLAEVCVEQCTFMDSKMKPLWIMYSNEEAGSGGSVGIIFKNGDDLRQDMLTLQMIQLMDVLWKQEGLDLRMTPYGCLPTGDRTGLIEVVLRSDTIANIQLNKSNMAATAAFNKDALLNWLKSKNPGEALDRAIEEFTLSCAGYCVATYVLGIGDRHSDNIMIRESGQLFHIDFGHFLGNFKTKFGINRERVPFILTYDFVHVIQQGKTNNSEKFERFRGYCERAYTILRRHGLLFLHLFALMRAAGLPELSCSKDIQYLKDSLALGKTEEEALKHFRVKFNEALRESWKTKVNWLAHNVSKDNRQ
Briefly: Inhibition of PI3Kdelta (unknown origin) using PIP2 as substrate after 2 hrs by ADP-Glo assay. (ADP-Glo first removes unused ATP, then detects ADP through luciferase.)

Data set [3] deals with SU-DHL-6. Briefly: Antiproliferative activity against human SU-DHL6 cells after 72 hrs by CellTiter-Glo luminescent cell viability assay. In kind it is functional. The following applies: SU-DHL-6, 72 h.
Data set [4] concerns the target Phosphatidylinositol 4,5-bisphosphate 3-kinase catalytic subunit alpha isoform (Homo sapiens, UniProt P42336). The data set is described as follows: Inhibition of PI3Kalpha (unknown origin) using PIP2 as substrate after 2 hrs by ADP-Glo assay.
The target of data set [5] is Phosphatidylinositol 4,5-bisphosphate 3-kinase catalytic subunit beta isoform (Homo sapiens, UniProt P42338). Briefly: Inhibition of PI3Kbeta (unknown origin) using PIP2 as substrate after 2 hrs by ADP-Glo assay.
Sequence of Phosphatidylinositol 4,5-bisphosphate 3-kinase catalytic subunit beta isoform (P42338 whole entry, canonical isoform): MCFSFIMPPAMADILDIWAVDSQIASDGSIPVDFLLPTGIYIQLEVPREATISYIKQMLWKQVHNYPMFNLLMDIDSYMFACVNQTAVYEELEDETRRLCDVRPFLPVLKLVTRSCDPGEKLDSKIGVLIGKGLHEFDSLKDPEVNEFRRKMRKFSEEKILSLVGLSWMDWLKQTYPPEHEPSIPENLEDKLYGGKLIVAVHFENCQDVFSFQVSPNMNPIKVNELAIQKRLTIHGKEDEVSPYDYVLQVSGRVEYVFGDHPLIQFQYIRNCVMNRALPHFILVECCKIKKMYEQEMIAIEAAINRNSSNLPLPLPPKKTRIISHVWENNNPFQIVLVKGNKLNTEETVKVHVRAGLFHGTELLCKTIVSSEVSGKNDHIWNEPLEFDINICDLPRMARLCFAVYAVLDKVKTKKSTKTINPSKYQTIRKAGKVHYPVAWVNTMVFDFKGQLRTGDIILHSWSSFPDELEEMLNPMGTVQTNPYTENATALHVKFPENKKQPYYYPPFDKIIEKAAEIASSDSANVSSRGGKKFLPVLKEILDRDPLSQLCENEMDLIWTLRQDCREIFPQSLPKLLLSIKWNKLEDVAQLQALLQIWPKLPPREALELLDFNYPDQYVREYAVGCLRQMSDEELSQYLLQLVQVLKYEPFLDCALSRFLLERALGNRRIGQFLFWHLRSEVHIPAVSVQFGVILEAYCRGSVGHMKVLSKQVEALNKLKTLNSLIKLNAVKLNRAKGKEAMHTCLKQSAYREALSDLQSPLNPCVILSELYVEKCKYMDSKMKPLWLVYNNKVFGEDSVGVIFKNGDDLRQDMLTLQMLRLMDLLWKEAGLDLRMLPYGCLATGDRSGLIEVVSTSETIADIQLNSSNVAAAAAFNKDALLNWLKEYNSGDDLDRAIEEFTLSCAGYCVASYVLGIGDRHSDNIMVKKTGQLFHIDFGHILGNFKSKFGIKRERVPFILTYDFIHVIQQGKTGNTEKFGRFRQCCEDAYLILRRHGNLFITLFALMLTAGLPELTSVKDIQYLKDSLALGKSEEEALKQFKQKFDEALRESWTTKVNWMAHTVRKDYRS
In data set [6] the target is Phosphatidylinositol 4,5-bisphosphate 3-kinase catalytic subunit gamma isoform (Homo sapiens, UniProt P48736). Briefly: Inhibition of PI3Kgamma (unknown origin) using PIP2 as substrate after 2 hrs by ADP-Glo assay.
Sequence of Phosphatidylinositol 4,5-bisphosphate 3-kinase catalytic subunit gamma isoform (P48736 whole entry, canonical isoform): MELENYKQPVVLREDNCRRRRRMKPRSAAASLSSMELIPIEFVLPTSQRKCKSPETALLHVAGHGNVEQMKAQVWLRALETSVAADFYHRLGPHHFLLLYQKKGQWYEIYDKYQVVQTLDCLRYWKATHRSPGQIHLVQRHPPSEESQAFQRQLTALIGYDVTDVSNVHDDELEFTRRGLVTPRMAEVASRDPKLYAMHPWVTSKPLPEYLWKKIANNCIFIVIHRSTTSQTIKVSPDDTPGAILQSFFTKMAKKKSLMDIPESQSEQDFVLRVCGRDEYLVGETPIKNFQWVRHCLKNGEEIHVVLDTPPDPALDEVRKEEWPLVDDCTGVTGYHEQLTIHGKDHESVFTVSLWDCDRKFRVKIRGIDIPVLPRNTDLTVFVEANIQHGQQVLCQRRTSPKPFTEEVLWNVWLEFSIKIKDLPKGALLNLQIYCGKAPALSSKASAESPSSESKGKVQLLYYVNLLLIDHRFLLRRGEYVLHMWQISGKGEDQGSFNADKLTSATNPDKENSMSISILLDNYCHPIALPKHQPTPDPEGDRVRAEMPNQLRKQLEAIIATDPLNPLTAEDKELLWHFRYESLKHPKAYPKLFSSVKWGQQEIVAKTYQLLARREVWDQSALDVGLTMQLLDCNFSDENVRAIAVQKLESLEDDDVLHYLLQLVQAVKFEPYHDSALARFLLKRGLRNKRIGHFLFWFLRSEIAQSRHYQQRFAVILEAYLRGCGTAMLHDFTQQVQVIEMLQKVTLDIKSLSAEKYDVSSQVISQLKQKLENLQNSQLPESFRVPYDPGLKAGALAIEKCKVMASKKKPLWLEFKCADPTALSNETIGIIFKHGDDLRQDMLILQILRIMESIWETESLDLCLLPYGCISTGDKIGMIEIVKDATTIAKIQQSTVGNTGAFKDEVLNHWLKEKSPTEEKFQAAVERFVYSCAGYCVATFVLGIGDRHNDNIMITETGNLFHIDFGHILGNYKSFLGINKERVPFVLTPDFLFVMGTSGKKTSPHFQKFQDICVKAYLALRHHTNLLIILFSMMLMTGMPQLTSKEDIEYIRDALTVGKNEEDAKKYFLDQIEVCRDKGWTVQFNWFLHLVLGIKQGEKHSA
The conditions of data set [7]: human, microsomes.
Description: Intrinsic clearance in liver by measuring in intrinsic clearance in human liver microsomes in presence of NADPH by LC-MS/MS analysis
Data set [8] can be described thus: in vitro. The following applies: human, liver microsomes.
Description: Half life in human liver microsomes in presence of NADPH by LC-MS/MS analysis
Data set [9] is described as follows: in vitro. The following applies: human, liver microsomes. This is another data set of the same source. (In general: Microsomes from liver hold many membrane-bound enzymes, among them those of drug oxidation.)
Description: Intrinsic clearance in human liver microsomes assessed per mg protein in presence of NADPH by LC-MS/MS analysis
The nature of data set [10]: in vitro. The following applies: human, liver microsomes. The source holds these as a separate data set.
Description: Metabolic stability in human liver microsomes assessed as compound remaining after 60 mins in presence of NADPH by LC-MS/MS analysis
Data set [11] can be described thus: in vitro. The following applies: rat, liver microsomes.
Description: Half life in rat liver microsomes in presence of NADPH by LC-MS/MS analysis
Data set [12] in a line: in vitro. The following applies: rat, liver microsomes. This is another data set of the same source.
Description: Intrinsic clearance in rat liver microsomes assessed per mg protein in presence of NADPH by LC-MS/MS analysis
Data set [13] can be described thus: in vitro. The following applies: rat, liver microsomes. The source holds these as a separate data set.
Description: Metabolic stability in rat liver microsomes assessed as compound remaining after 60 mins in presence of NADPH by LC-MS/MS analysis
A short description of data set [14]: Half life in Sprague-Dawley rat at 10 mg/kg, po administered via gavage by LC-MS/MS analysis. In kind it is ADME, organism-based. The following applies: in vivo.
For data set [15], the target named is T2, Phosphatidylinositol 4,5-bisphosphate 3-kinase catalytic subunit delta isoform (Homo sapiens) (UniProt O00329).
T2 sequence (whole entry): T1 sequence (O00329 whole entry)
The data set is described as follows: Inhibition of PI3Kdelta in human SU-DHL6 cells assessed as reduction in Akt phosphorylation at S473 residue after 2 hrs by Western blot analysis. In kind it is cell-based. For orientation: Immunoblotting shows a protein as a band on a membrane.

Data set [16] has as its target T2, Phosphatidylinositol 4,5-bisphosphate 3-kinase catalytic subunit delta isoform (Homo sapiens). Briefly: Inhibition of PI3Kdelta in human SU-DHL6 cells assessed as reduction in S6K1 phosphorylation at T389 residue after 2 hrs by Western blot analysis. In kind it is cell-based.
For data set [17] the target is unchanged. Briefly: Inhibition of PI3Kdelta in human SU-DHL6 cells assessed as reduction in Akt phosphorylation at S473 residue at 100 nM after 2 hrs by Western blot analysis. In kind it is cell-based.
The target is the same in data set [18]. The data set is described as follows: Inhibition of PI3Kdelta in human SU-DHL6 cells assessed as reduction in S6K1 phosphorylation at T389 residue a at 100 nM after 2 hrs by Western blot analysis. In kind it is cell-based.
A short description of data set [19]: AUC (0 to last) in Sprague-Dawley rat at 10 mg/kg, po administered via gavage by LC-MS/MS analysis. The following applies: in vivo. Further details: dose 10 mg/kg, time 0 - last, route oral. It counts as ADME, organism-based.

Sequence of Phosphatidylinositol 4,5-bisphosphate 3-kinase catalytic subunit alpha isoform (P42336 whole entry, canonical isoform): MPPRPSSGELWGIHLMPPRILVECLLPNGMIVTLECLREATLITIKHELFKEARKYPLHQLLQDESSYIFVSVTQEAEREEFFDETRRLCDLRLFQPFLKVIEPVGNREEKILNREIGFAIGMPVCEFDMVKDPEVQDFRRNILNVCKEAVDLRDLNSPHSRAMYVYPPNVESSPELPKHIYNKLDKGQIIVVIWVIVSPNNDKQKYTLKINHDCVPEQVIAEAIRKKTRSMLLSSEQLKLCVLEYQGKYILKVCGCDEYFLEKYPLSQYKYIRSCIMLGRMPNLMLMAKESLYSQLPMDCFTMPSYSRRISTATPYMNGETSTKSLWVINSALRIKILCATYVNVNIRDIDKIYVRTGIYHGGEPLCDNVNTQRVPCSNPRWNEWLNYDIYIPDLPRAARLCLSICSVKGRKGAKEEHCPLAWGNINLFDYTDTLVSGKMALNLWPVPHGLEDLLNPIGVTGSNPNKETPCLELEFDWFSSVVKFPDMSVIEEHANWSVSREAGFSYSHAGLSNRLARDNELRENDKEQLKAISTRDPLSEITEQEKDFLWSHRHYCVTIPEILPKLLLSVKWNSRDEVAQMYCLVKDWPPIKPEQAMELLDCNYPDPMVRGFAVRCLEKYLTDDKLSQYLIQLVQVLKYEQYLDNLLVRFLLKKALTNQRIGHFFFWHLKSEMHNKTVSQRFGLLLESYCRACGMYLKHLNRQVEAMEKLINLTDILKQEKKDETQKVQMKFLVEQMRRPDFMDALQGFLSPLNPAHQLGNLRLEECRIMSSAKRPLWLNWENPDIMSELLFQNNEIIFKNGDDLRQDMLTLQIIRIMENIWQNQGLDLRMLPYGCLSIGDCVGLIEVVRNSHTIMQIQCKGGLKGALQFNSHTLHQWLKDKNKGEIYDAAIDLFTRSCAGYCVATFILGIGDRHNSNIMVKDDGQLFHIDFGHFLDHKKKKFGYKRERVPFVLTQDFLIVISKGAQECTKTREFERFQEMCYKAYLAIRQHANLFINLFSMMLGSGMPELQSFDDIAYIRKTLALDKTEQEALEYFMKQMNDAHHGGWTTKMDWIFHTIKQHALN

For the molecule `O=C(O)Cc1ccccc1Nc1c(Cl)cccc1Cl` [DICLOFENAC], the CLH in [1] came out at 143 µL/min/kg.

Turning to `O=c1c2c(F)cccc2nc([C@@H]2CCCN2c2nc(F)nc3[nH]cnc23)n1C1CCCC1`, the IC50 in [2] worked out at 178 nM. Halving of growth in [3] (GI50) required 1890 nM.

For the molecule `O=c1c2ccccc2nc([C@@H]2CCCN2c2ncnc3[nH]cnc23)n1Cc1ccccc1`, in data set [2], the IC50 worked out at 498 nM. In data set [3], this molecule gave a GI50 of 580 nM.

In the case of `N#Cc1c(N)ncnc1N1CCC[C@H]1c1nc2cccc(F)c2c(=O)n1Cc1ccccc1`, the IC50 in data set [2] worked out at 22 nM; in data set [4], 4.94 µM; in data set [5], 6.24 µM; in data set [6], 587 nM. Further, in data set [3], the concentration for 50% growth inhibition (GI50) was determined as 330 nM. Moreover, the CLH in [7] stood at 40.1 µL/min/kg; in data set [1], 1557.1 µL/min/kg. The figures for the half-life in [8] and in data set [11] were 31.1 min and 1.6 min, respectively. In addition, the microsomal CLint stood at 44.6 µL/min/mg in data set [9] and 865 µL/min/mg in data set [12]. The fraction remaining at 1 h in data set [10] worked out at 25.5%; in data set [13], 0.1%.

The molecule `O=c1c2c(F)cccc2nc([C@@H]2CCCN2c2ncnc3[nH]cnc23)n1C1CCCCC1` returned an IC50 in data set [2] of 33 nM. For the same molecule, in data set [3], it took 510 nM to inhibit growth by half (GI50).

In turn, `CCCCn1c([C@@H]2CCCN2c2ncnc3[nH]cnc23)nc2cccc(F)c2c1=O` had a half-inhibitory concentration (IC50) in [2] of 42 nM. In data set [3], this molecule registered a concentration for 50% growth inhibition (GI50) of 640 nM.

On to `O=c1c2c(F)cccc2nc([C@@H]2CCCN2c2ncnc3[nH]cnc23)n1C1CCCC1`, for which the IC50 in [2] came to 38 nM. In data set [3], this molecule came in with a concentration for 50% growth inhibition (GI50) of 2650 nM.

In the case of `O=c1c2c(F)cccc2nc([C@@H]2CCCN2c2ncnc3[nH]cnc23)n1C1CCC1`, in data set [2], the half-maximal inhibitory concentration (IC50) was determined as 635 nM. Further, the concentration for 50% growth inhibition (GI50) in [3] worked out at 630 nM.

Take `C[C@]12CC[C@H]3[C@@H](CCC4=CC(=O)CC[C@@]43C)[C@@H]1CC[C@@H]2O` [TESTOSTERONE]: the results for the CLH in [7] and in data set [1] were 91.1 µL/min/kg and 3775.6 µL/min/kg, respectively.

In data set [2], `O=c1c2c(F)cccc2nc([C@@H]2CCCN2c2nc(F)nc3[nH]cnc23)n1Cc1ccccc1` displayed a half-inhibitory concentration (IC50) of 91 nM. This molecule displayed a GI50 in data set [3] of 380 nM.

Consider `O=c1c2c(F)cccc2nc([C@@H]2CCCN2c2ncnc3[nH]cnc23)n1Cc1ccccc1`, for which the IC50 in data set [2] is 58 nM. In data set [3], this molecule showed a GI50 of 480 nM.

Regarding `N#Cc1c(N)ncnc1N1CCC[C@H]1c1nc2cccc(F)c2c(=O)n1C1CCCC1`, the half-life in data set [14] was 246 min; in data set [8] it was 17.5 min; in [11] it was 15.1 min. In addition, the half-inhibitory concentration (IC50) came out at 6.3 nM in data set [2], 8.59 µM in data set [4], 1.55 µM in [5] and 354 nM in [6]. Further, in [3], the concentration for 50% growth inhibition (GI50) came out at 210 nM. The inhibition entry in [15] and in data set [16] was “Dose-dependent effect” in each case. Besides, the inhibition result in [17] and in data set [18] was “Active” each time. The molecule further had an AUC(0-t) in data set [19] of 50.8 ng·h/mL. Further, the CLH in data set [7] turned out to be 71.3 µL/min/kg; in data set [1], 165.1 µL/min/kg. For the same molecule, the microsomal CLint in data set [9] was determined as 79.2 µL/min/mg; in [12] it was 91.7 µL/min/mg. In addition, the amount remaining at 1 h in data set [10] came out at 9.1%; in [13] it was 6.2%.

On to `CC[C@H](Nc1ncnc2[nH]cnc12)c1nc2cccc(F)c2c(=O)n1-c1ccccc1` [IDELALISIB], for which it took 20 nM to inhibit growth in data set [3] by half (GI50).
